From article PMC5874719, “A π-Halogen Bond of Dibenzofuranones with the Gatekeeper Phe113 in Human Protein Kinase CK2 Leads to Potent Tight Binding Inhibitors” (Pharmaceuticals, 2018)

Assays:
[1] = system: PARP1 in LNCaP cells; assay: PARP1 cleavage, Western blot; format: cell-based, human
Procedure: (§1) Figure 6 Induction of apoptosis in prostate cancer cell line LNCaP and non-neoplastic retinal pigment epithelial cell line ARPE19. (A) ARPE19 or LNCaP cells were treated with DMSO as control (0 μM) or with 25 or 50 μM 4b, 4a or 5 for 24 or 48 h. Activity of caspases 3 and 7 was determined using the luminescent Caspase-Glo® 3/7 assay according to the technical bulletin of the manufacturer. Median relative light units (RLU) + standard deviation from at least three independent experiments are shown in the bar graph. (B) Cells were treated as described before. 75 μg cell extract was separated in a 10% SDS polyacrylamide gel and analyzed in a Western blot analysis with a rabbit polyclonal antibody against PARP1. + is a positive control for PARP cleavage.
In addition to the luminescence assay, Western blot analysis was performed to check PARP1-cleavage (Figure 6B). Therefore specific antibodies for the detection of the full-length PARP1 (113 kDa) and the larger cleavage fragment of PARP1 (89 kDa) were used. In ARPE19 cells no cleavage product of PARP1 was detectable.
Proteins were separated by SDS polyacrylamide gel electrophoresis and blotted onto a PVDF membrane. After blocking (1 h with PBS-Tween20 with 5% dry milk) the membrane was incubated with appropriate dilutions of primary antibodies in PBS-Tween20 with 1% dry milk for another hour at room temperature or at 4 °C overnight. Then the membrane was washed twice for 10 min with PBS-Tween20 with 1% dry milk. Incubation with the peroxidase-coupled secondary antibody (anti-rabbit 1:30,000, anti-mouse 1:10,000) followed for 1 h. The membrane was washed again twice for 10 min with PBS-Tween20. Signals were developed and visualized by the Lumilight system of Roche Diagnostics GmbH. For the detection of the apoptose marker protein PARP we used a polyclonal PARP antibody (Cell Signaling Technology, Frankfurt, Germany), a GAPDH specific antibody (Santa Cruz Biotechnologies, Dallas, TX, USA) was used for loading control. […]

[2] = system: LNCaP cells; assay: MTT viability assay; format: cell-based; details: Homo sapiens, 24 h, DMSO as reference, read-out: cell viability
Procedure: Protein kinase CK2 is essential for the survival of cells. Therefore, we tested the impact of the CK2 inhibitors on the viability of cells in both lines. The inhibitors were applied in increasing concentrations up to 50 µM to growing cell cultures and the viability was analyzed by a MTT assay after 24 h of treatment. The effect of the compounds on the growth of the normal ARPE19 cells was rather moderate (Figure 5A). 5 had no impact on ARPE19 cell viability. 4b reduced the viability to 70% in its highest concentration and 4a exerted the strongest influence by reducing the ratio of viable cells to 40% when applying a 50 µM dose. In contrast LNCaP cells were strongly impaired by the treatment with the dibenzofurans (Figure 5B): Using 10 µM of the different inhibitors, we only observed an effect with 4b. However, increasing the concentration to 20, 25 and 50 µM exerted a drastic impact on the viability of LNCaP cells. With 50 µM 4b a viability rate of final 5% was obtained, whereas 4a and 5 reduced the viability to 30 to 35%. Thus, the inhibitors in particular affected the viability of LNCaP carcinoma cells, but not of normal retinal pigment epithelium cells. […] Even after 48 h of growth under CK2 inhibition ARPE19 cells appeared rather unaffected by the treatment. […]
Figure 5 Effects of dibenzofuran inhibitors on cell viability. […] Cell viability was determined using the MTT assay after 24 h of incubation. […]
ARPE19 cells (ATCC Number: CRL-2302), retinal pigment epithelia (RPE) cells, were maintained at 37 °C and 5% CO2 in Dulbecco’s modified Eagles medium (DMEM) supplemented with 2 mM L-glutamine, 1 mM gentamicin and 10% fetal calf serum (FCS) at 37 °C in an atmosphere enriched with 5% CO2. […] For the evaluation of cell morphology ARPE19 and LNCaP cells were analysed with bright field microscopy using a Axiovert microscope from Zeiss (Jena, Germany).
Cell proliferation and viability was determined using a colorimetric MTT-based assay (MTT: 3-[4,5-dimethylthiazol-2-yl]-2,5-diphenyl tetrazolium bromide, Sigma-Aldrich, Deisenhofen, Germany) as described in [72]. […]

[3] = system: caspases 3 and 7 in LNCaP cells; assay: Caspase-Glo 3/7 assay; format: cell-based, human; details: for caspase 3/7 activity, maximum obtained: 25 or 50 µM, 24 or 48 h; for caspase 3/7 activity: 50 µM, 48 h
Source text: Reducing the activity of CK2 by the inhibitors is supposed to overcome the antiapoptotic effect of the enzyme and cells are induced to undergo apoptosis. […] In consequence, we analyzed in the next experiments whether the cells were killed by apoptosis. Hallmark of apoptosis is the activation of the key effector caspases 3 and 7 which ends in the cleavage of poly (ADP ribose) polymerase PARP1. The full-length PARP1 is cleaved by the caspases to an 89 and a 24 kDa fragment. These events of late apoptotic signaling were analyzed in ARPE19 and LNCaP cells grown in the presence and in the absence of dibenzofurans. Inhibitor concentrations of 25 and 50 µM were used and were applied for 24 and 48 h. In cell lysates of LNCaP and ARPE19 cells the activity of caspases 3 and 7 was determined subsequently by a luminescence based assay (Figure 6A).
as §1, with “(A)” for “Figure 6 Induction of apoptosis in prostate cancer cell line LNCaP and non-neoplastic retinal pigment epithelial cell line ARPE19. (A)”
The activity of the apoptotic key effector caspases 3 and 7 in cell extracts was determined using the Caspase-Glo 3/7 assay according to the protocol of the manufacturer (Promega, Mannheim, Germany).

Structure (SMILES)	PARP1 cleavage ([1]; 25 or 50 µM, 24 or 48 h)	viability at 50 µM [2]	caspase 3/7 activity, maximum obtained [3]	PARP1 cleavage ([1]; 50 µM)	caspase 3/7 activity [3]
COc1ccc(N/C=C2\C(=O)CCc3c2oc2cc(Cl)c(O)c(Cl)c32)cc1 [4a, 7,9-dichloro-1,2-dihydro-8-hydroxy-4-[(4-methoxyphenylamino)methylene]dibenzo[b,d]furan-3(2H)-one]	did not result in cleavage of PARP1	30 to 35%	17,000 RLU		
Cc1ccc(NC=C2C(=O)CCc3c2oc2c(Cl)c(Cl)c(O)cc32)cc1 [4b, 6,7-dichloro-1,4-dihydro-8-hydroxy-4-[(4-methylphenylamino)methylene]dibenzo[b,d]furan-3(2H)-one]		5%		cleavage of PARP1	> 50,000 RLU
COc1ccc(/N=C/c2c(O)ccc3c2oc2cc(Cl)c(O)c(Cl)c23)cc1 [compound 5, (E)-1,3-dichloro-6-[(4-methoxyphenylimino)methyl]dibenzo[b,d]furan-2,7-diol]		30 to 35%	55,000 RLU	cleavage of PARP1	> 50,000 RLU
